Laboratory results: patent US11578061B2, “Inhibitors of LRRK2 kinase” (Halia Therapeutics, Inc., priority 2021, dated 2023)

Molecular target: recombinant human LRRK2 (catalytic domain only [amino acids 970-2527], GST-tagged) (Homo sapiens (Human), UniProt Q5S007)
Assay: LRRK2 Enzymatic Assay
Type: biochemical
Conditions: LRRKtide substrate, [32P]-ATP
Summary of the method: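 GST-tagged catalytic domain (aa 970-2527) at 30 nM with 20 μM LRRKtide in HEPES pH 7.5/MgCl2 buffer, 1% DMSO; compounds (10 μM to 0.5 nM) preincubated 20 min, then [32P]-ATP added for 2 h at room temperature. P81 phosphocellulose capture; activity as % of vehicle, IC50 by curve fit.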

recombinant human LRRK2 (catalytic domain only [amino acids 970-2527], GST-tagged), sequence (Q5S007 970-2527): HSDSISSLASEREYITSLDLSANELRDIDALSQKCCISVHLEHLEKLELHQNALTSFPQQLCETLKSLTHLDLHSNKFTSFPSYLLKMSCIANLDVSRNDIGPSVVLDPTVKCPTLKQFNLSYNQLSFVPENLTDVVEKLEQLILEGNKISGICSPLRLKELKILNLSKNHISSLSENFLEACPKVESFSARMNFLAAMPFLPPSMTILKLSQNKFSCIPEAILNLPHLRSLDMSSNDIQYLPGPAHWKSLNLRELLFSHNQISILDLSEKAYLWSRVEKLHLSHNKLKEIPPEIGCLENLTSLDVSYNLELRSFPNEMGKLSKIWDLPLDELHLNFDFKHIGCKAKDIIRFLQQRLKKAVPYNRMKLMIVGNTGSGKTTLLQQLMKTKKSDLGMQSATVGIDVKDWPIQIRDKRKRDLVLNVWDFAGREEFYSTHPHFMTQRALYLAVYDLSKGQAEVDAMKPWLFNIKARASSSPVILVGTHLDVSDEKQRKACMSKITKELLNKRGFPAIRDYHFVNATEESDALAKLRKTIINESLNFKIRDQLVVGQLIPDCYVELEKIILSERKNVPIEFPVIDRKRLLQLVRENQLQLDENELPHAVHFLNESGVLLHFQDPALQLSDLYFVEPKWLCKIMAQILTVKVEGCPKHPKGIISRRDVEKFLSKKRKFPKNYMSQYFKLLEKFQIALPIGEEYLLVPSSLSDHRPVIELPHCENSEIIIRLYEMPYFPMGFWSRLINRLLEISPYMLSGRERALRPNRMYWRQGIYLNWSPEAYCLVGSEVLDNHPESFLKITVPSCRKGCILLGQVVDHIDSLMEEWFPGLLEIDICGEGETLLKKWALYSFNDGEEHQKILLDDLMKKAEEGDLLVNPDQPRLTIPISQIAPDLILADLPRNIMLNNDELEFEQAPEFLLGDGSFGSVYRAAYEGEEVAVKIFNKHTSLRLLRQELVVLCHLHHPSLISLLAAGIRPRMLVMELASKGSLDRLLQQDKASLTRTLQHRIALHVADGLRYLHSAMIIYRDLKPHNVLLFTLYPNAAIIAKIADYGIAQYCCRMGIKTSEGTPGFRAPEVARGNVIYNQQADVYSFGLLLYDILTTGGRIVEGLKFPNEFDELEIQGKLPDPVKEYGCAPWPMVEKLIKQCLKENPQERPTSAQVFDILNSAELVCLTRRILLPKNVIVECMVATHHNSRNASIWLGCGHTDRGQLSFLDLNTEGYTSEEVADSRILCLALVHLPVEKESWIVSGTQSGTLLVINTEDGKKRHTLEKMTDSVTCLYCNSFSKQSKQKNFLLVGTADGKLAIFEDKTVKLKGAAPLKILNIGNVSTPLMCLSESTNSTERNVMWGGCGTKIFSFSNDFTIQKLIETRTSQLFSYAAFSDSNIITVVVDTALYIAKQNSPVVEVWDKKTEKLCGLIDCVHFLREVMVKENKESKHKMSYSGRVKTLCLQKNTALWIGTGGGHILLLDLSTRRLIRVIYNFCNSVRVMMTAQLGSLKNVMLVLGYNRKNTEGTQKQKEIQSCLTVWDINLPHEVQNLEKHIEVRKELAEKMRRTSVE

| IC50 [nM] | Structure (SMILES) |
| --- | --- |
| 50 to 200 | CC(=O)N[C@H]1CC[C@H](COc2ccnc(Nc3cnn(C(C)C)c3)n2)CC1 [Example 76, N-((1R,4R)-4-(((2-((1-isopropyl-1H-pyrazol-4-yl)amino)pyrimidin-4-yl)oxy)methyl)cyclo-hexyl)acetamide] |
| > 400 | CC(=O)NC12CCC(COc3ccnc(Nc4ccc(N5CCOCC5)cc4)n3)(CC1)CC2 [Example 77, N-(4-(((2-((4-morpholinophenyl)amino)pyrimidin-4-yl)oxy)methyl)bicyclo [2.2.2]octan-1-yl)acetamide] |
| 200 to 400 | CC(=O)NC12CCC(COc3ccnc(Nc4cn(C(C)(C)C#N)nc4C)n3)(CC1)CC2 [Example 78, N-(4-(((2-((1-(2-cyanopropan-2-yl)-3-methyl-1H-pyrazol-4-yl)amino)pyrimidin-4-yl)oxy)methyl)bicyclo [2.2.2]octan-1-yl)acetamide] |
| 200 to 400 | CC(=O)NC12C3C4C1C1C2C3C41COc1ccnc(Nc2ccc(N3C[C@@H](C)O[C@@H](C)C3)cc2)n1 (stereo partly drawn) [Example 79, N-(4-(((2-((4-((2S,6R)-2,6-dimethylmorpholino)phenyl)amino)py-rimidin-4-yl)oxy)methyl)cuban-1-yl)acetamide] |
| < 50 | CC(=O)N[C@H]1CC[C@H](COc2nc(Nc3ccc(N4CCOCC4)cc3)ncc2Cl)CC1 [Example 80, N-((1R,4R)-4-(((5-chloro-2-((4-morpholinophenyl)amino)pyrimidin-4-yl)oxy)methyl)cyclo-hexyl)acetamide] |
| < 50 | CC(=O)N[C@H]1CC[C@H](COc2nc(Nc3cn(C(C)(C)C#N)nc3C)ncc2Cl)CC1 [Example 81, N-((1R,4R)-4-(((5-chloro-2-((1-(2-cyanopropan-2-yl)-3-methyl-1H-pyrazol-4-yl)amino)pyrimidin-4-yl)oxy)methyl)cyclo-hexyl)acetamide] |
| < 50 | CC(=O)N[C@H]1CC[C@H](COc2nc(Nc3ccc(N4CCOCC4)cc3)ncc2F)CC1 [Example 82, N-((1R,4R)-4-(((5-fluoro-2-((4-morpholinophenyl)amino)pyrimidin-4-yl)oxy)methyl)cyclo-hexyl)acetamide] |
| < 50 | CC(=O)N[C@H]1CC[C@H](COc2nc(Nc3ccc(N4C[C@@H](C)O[C@@H](C)C4)cc3)ncc2F)CC1 [Example 83] |
| < 50 | CC(=O)N[C@H]1CC[C@H](COc2nc(Nc3cn(C(C)(C)C#N)nc3C)ncc2F)CC1 [Example 84, N-((1R,4R)-4-(((2-((1-(2-cyanopropan-2-yl)-3-methyl-1H-pyrazol-4-yl)amino)-5-fluoropyrimidin-4-yl)oxy)methyl)cyclo-hexyl)acetamide] |
| < 50 | CC(=O)NC1CCCC(COc2nc(Nc3ccc(N4CCOCC4)cc3)ncc2F)CC1 (stereo not drawn) [Example 85, N-(4-(((5-fluoro-2-((4-morpholinophenyl)amino)pyrimidin-4-yl)oxy)methyl)cyclo-heptyl)acetamide] |
| < 50 | CC(=O)N[C@H]1CC[C@H](COc2nc(Nc3cn(C(C)(C)C#N)nc3C)ncc2C)CC1 [Example 87, N-((1R,4R)-4-(((2-((1-(2-cyanopropan-2-yl)-3-methyl-1H-pyrazol-4-yl)amino)-5-methylpyrimidin-4-yl)oxy)methyl)cyclo-hexyl)acetamide] |
| 50 to 200 | CC(=O)N[C@H]1CC[C@H](COc2nc(Nc3ccc(N4CCOCC4)cc3)ncc2C2CC2)CC1 [Example 88, N-((1R,4R)-4-(((5-cyclopropyl-2-((4-morpholinophenyl)amino)pyrimidin-4-yl)oxy)methyl)cyclo-hexyl)acetamide] |
| > 400 | CC(=O)N[C@H]1CC[C@@H](COc2ccnc(Nc3ccc(N4CCOCC4)cc3)n2)C1 [Example 89, N-((1S,3R)-3-(((2-((4-morpholinophenyl)amino)pyrimidin-4-yl)oxy)methyl)cyclo-pentyl)acetamide] |
| > 400 | CC(=O)NC1CCC(C)(COc2ccnc(Nc3ccc(N4C[C@@H](C)O[C@@H](C)C4)cc3)n2)CC1 (stereo partly drawn) [Example 90, N-(4-(((2-((4-((2S,6R)-2,6-dimethylmorpholino)phenyl)amino)py-rimidin-4-yl)oxy)methyl)-4-methylcyclohexyl) acetamide] |
| > 400 | CC(=O)NC1CCC(C)(COc2ccnc(Nc3ccc(N4CCOCC4)cc3)n2)CC1 (stereo not drawn) [Example 91, N-(4-methyl-4-(((2-((4-morpholinophenyl)amino)pyrimidin-4-yl)oxy)methyl)cyclo-hexyl)acetamide] |
| 200 to 400 | CC(=O)N[C@H]1C[C@H](COc2nc(Nc3ccc(N4CCOCC4)cc3)ncc2F)C1 [Example 92, N-((1R,3R)-3-(((5-fluoro-2-((4-morpholinophenyl)amino)pyrimidin-4-yl)oxy)methyl)cyclo-butyl)acetamide] |

| IC50 [nM] | Structure (SMILES) |
| --- | --- |
| < 50 | CC(=O)NC1CCCC(COc2nc(Nc3ccc(N4C[C@@H](C)O[C@@H](C)C4)cc3)ncc2F)CC1 (stereo partly drawn) [Example 93, N-(4-(((2-((4-((2S,6R)-2,6-dimethylmorpholino)phenyl)amino)-5-fluoropyrimidin-4-yl)oxy)methyl)cyclo-heptyl)acetamide] |
| > 400 | CC(=O)N[C@H]1C[C@H](COc2ccnc(Nc3ccc(N4CCOCC4)cc3)n2)C1 [Example 94, N-((1R,3R)-3-(((2-((4-morpholinophenyl)amino)pyrimidin-4-yl)oxy)methyl)cyclo-butyl)acetamide] |
| < 50 | CC(=O)N1CCC(COc2nc(Nc3ccc(N4CCOCC4)cc3)ncc2Cl)C(F)(F)C1 (stereo not drawn) [Example 95, 1-(4-(((5-chloro-2-((4-morpholinophenyl)amino)pyrimidin-4-yl)oxy)methyl)-3,3-difluoropiperidin-1-yl)ethan-1-one] |
| < 50 | CC(=O)N1CCC(COc2nc(Nc3cn(C(C)(C)C#N)nc3C)ncc2Cl)C(F)(F)C1 (stereo not drawn) [Example 96, 2-(4-((4-((1-acetyl-3,3-difluoropiperidin-4-yl)methoxy)-5-chloropyrimidin-2-yl)amino)-3-methyl-1H-pyrazol-1-yl)-2-methylpropanenitrile] |
| > 400 | CC(=O)N1CC2(CC(COc3nc(Nc4ccc(N5C[C@@H](C)O[C@@H](C)C5)cc4)ncc3F)C2)C1 [Example 97] |
| 50 to 200 | O=C(N[C@H]1CC[C@H](COc2ccnc(Nc3ccc(N4CCOCC4)cc3)n2)CC1)C(F)(F)F [Example 98, 2,2,2-trifluoro-N-((1R,4R)-4-(((2-((4-morpholino-phenyl)amino)pyrimidin-4-yl)oxy)methyl)cyclohexyl) acetamide] |
| < 50 | O=C(N[C@H]1CC[C@H](COc2nc(Nc3ccc(N4CCOCC4)cc3)ncc2F)CC1)C(F)(F)F [Example 99, 2,2,2-trifluoro-N-((1R,4R)-4-(((5-fluoro-2-((4-morpholino-phenyl)amino)pyrimidin-4-yl)oxy)methyl)cyclohexyl) acetamide] |
| < 50 | Cc1nn(C(C)(C)C#N)cc1Nc1ncc(Cl)c(OC[C@H]2CC[C@H](NC(=O)C(F)F)CC2)n1 [Example 100, N-((1R,4R)-4-(((5-chloro-2-((1-(2-cyano-propan-2-yl)-3-methyl-1H-pyrazol-4-yl)amino)pyrimidin-4-yl)oxy)methyl)cyclohexyl)-2,2-difluoro-acetamide] |
| < 50 | O=C(N[C@H]1CC[C@H](COc2nc(Nc3cccc(N4CCOCC4)c3)ncc2Cl)CC1)C(F)F [Example 101, N-((1R,4R)-4-(((5-chloro-2-((3-morpholino-phenyl)amino)pyrimidin-4-yl)oxy)methyl)cyclohexyl)-2,2-difluoro-acetamide] |
| < 50 | O=C(N[C@H]1CC[C@@H](COc2nc(Nc3ccc(N4CCOCC4)cc3)ncc2Cl)C1)C(F)F [Example 102, N-((1S,3R)-3-(((5-chloro-2-((4-morpholino-phenyl)amino)pyrimidin-4-yl)oxy)methyl)cyclopentyl)-2,2-difluoro-acetamide] |
| 50 to 200 | FC(F)(F)CN[C@H]1CC[C@H](COc2ccnc(Nc3ccc(N4CCOCC4)cc3)n2)CC1 [Example 104, N-(4-morpholino-phenyl)-4-(((1R,4R)-4-((2,2,2-trifluoroethyl)amino)cyclohexyl)methoxy) pyrimidin-2-amine] |
| 50 to 200 | COc1cnc(Nc2ccc(N3CCOCC3)cc2)nc1OC[C@H]1CC[C@H](NCC(F)(F)F)CC1 [Example 105, 5-methoxy-N-(4-morpholino-phenyl)-4-(((1R,4R)-4-((2,2,2-trifluoroethyl)amino)cyclohexyl)methoxy) pyrimidin-2-amine] |
| < 50 | FC(F)(F)CN[C@H]1CC[C@H](COc2nc(Nc3ccc(N4CCOCC4)cc3)ncc2Cl)CC1 [Example 108, 5-chloro-N-(4-morpholino-phenyl)-4-(((1R,4R)-4-((2,2,2-trifluoroethyl)amino)cyclohexyl)methoxy) pyrimidin-2-amine] |
| < 50 | O=C(C(F)F)N1CCC(COc2nc(Nc3ccc(N4CCOCC4)cc3)ncc2Cl)CC1 [Example 109, 1-(4-(((5-chloro-2-((4-morpholino-phenyl)amino)pyrimidin-4-yl)oxy)methyl)piperidin-1-yl)-2,2-difluoro-ethan-1-one] |
| < 50 | O=C(C(F)F)N1CCC(COc2nc(Nc3cccc(N4CCOCC4)c3)ncc2Cl)CC1 [Example 110, 1-(4-(((5-chloro-2-((3-morpholino-phenyl)amino)pyrimidin-4-yl)oxy)methyl)piperidin-1-yl)-2,2-difluoro-ethan-1-one] |

| Structure (SMILES) | IC50 [nM] |
| --- | --- |
| FC(F)CN[C@H]1CC[C@H](COc2ccnc(Nc3ccc(N4CCOCC4)cc3)n2)CC1 [Example 103, 4-(((1R,4R)-4-((2,2-difluoro-ethyl)amino)cyclohexyl)methoxy)-N-(4-morpholino-phenyl) pyrimidin-2-amine] | < 50 |
| FC(F)CN[C@H]1CC[C@H](COc2nc(Nc3cccc(N4CCOCC4)c3)ncc2Cl)CC1 [Example 107, 5-chloro-4-(((1R,4R)-4-((2,2-difluoro-ethyl)amino)cyclohexyl)methoxy)-N-(3-morpholino-phenyl) pyrimidin-2-amine] | < 50 |
